# Results as given in PubChem BioAssay AID1963861 (Molecular Pharmacology Branch, DTP, NCI, 2024).
# System: 885724-159-R-J1-PDC KRAS PDC multicell spheroid viability
# Assay: Anticancer human tumor 885724-159-R-J1-PDC patient-derived pancreatic adenocarcinoma cell line growth inhibition [KRAS2]
# Details: for viability, T/C: stronger effect = lower value
# Excerpt: Multicellular complex tumor spheroid response to RAS pathway inhibitors in combination with a targeted agents in patient-derived cell lines with oncogenic KRAS variants from multiple cancer types
# A high-throughput screen of multi-cell type tumor spheroids was designed to identify active combinations of targeted small molecules and KRAS pathway inhibitors. Complex spheroids include a stromal component modeled by human endothelial cells (HUVEC) and fibroblasts modeled by human mesenchymal stem cells (MSCs). The concentration ranges selected for each drug and investigational agent were based upon clinically achievable concentrations if the clinical Cmax of the agent was known.
# Compounds. The drugs and investigational agents: BI-3406 (NSC825286), BAY-293 (NSC824723), batoprotafib (TNO155; NSC825523), sotorasib (AMG 510; NSC818433), MRTX1257 (NSC819558), elimusertib (BAY 1895344; NSC800525), molibresib (GSK525762; NSC774829), temuterkib (LY3214996; NSC803410), venetoclax (NSC766270), alisertib (NSC759677), olaparib (NSC753686), talazoparib (NSC767125), erdafitinib (NSC781556), ipatasertib (NSC767898), cabozantinib (NSC761068), nintedanib (NSC756659), abemaciclib (NSC768073), docetaxel (NSC628503), trametinib (NSC758246), and sapanisertib (NSC764658) were obtained from the National Cancer Institute (NCI) Developmental Therapeutics Program Chemical Repository. The FDA-approved anticancer drug set is available from the Developmental Therapeutics Program. […] The stock solutions were prepared in dimethyl sulfoxide (DMSO, Sigma-Aldrich, St. Louis, MO, cat. D2650) at 800-fold the tested concentration and stored at -70 degrees C prior to their use. All drugs and investigational agents were tested over a range starting from a high concentration at or near the clinical Cmax and decreasing in half-log increments. If the clinical Cmax for an agent had not been determined, the highest concentration tested was 10 microM.
# Cell Culture. All cells were maintained in an incubator at 37 degrees C and 5% CO2 with 95% humidity. The PDC lines were cultured according to standard operating procedures established by the NCI PDMR (https://pdmr.cancer.gov/sops/default.htm). Briefly, all PDCs were thawed and cultured in Matrigel-coated flasks prepared with a working solution of 1X Ham's F-12 nutrient mix, without supplementation (Invitrogen, Waltham, MA, cat. 11765054), 100 U/mL penicillin-streptomycin (Invitrogen, cat. 15140122), and 2.5% Matrigel (Corning Inc., Corning, NY, cat. 354248) for the first three passages. All PDCs were cultured in complete DMEM/F-12 media containing advanced DMEM/F-12 (Invitrogen, cat. 12634028), 4.9% defined fetal bovine serum, heat inactivated (HyClone Laboratories Inc., Logan, UT, cat. SH30070.03HI), 389 ng/mL hydrocortisone (Sigma-Aldrich, cat. H4001), 9.7 ng/mL human EGF recombinant protein (Invitrogen, cat. PHG0313), 23.4 microg/mL adenine (Sigma-Aldrich, cat. A2786), 97.3 U/mL penicillin-streptomycin (Invitrogen, cat. 15140122), 1.9 mM L-glutamine (Invitrogen, cat. 25030081), and 9.7 microM Y-27632 dihydrochloride (Tocris Bioscience, Bristol, United Kingdom, cat. 1254). The PDCs were cultured in complete DMEM/F12 media without 9.7 microM Y-27632 dihydrochloride for at least two passages prior to the screen. The established cell line HOP-62 was cultured in RPMI 1640 medium, HEPES (Invitrogen, cat. 22400105) with 10% defined fetal bovine serum (HyClone Laboratories Inc., cat. SH30070.03) and 2 mM L-glutamine (Invitrogen, cat. 25030081). The pooled donor HUVEC were cultured in endothelial cell growth medium 2 (PromoCell, Heidelberg, Germany, cat. C-22011) and the hMSC were cultured in mesenchymal stem cell growth medium 2 (PromoCell, cat. C-28009). For all experiments, HUVEC and hMSC were used at passages </=5, while the malignant cell lines were used at passages </=15. […]
# [1] = curve of first compound, second compound 0.1 µM
# [2] = curve of first compound, second compound 0.316 µM
# [3] = curve of first compound, second compound 1 µM
# [4] = curve of first compound, second compound 3.16 µM
# [5] = curve of first compound, second compound 10 µM
# [6] = second compound 0.1 µM, first compound 0.0316 µM
# [7] = second compound 0.1 µM, first compound 0.1 µM
# [8] = second compound 0.1 µM, first compound 0.316 µM
# [9] = second compound 0.1 µM, first compound 1 µM
# [10] = second compound 0.1 µM, first compound 3.16 µM
# [11] = second compound 0.1 µM, first compound 10 µM
# [12] = second compound 0.316 µM, first compound 0.0316 µM
# [13] = second compound 0.316 µM, first compound 0.1 µM
# [14] = second compound 0.316 µM, first compound 0.316 µM
# [15] = second compound 0.316 µM, first compound 1 µM
# [16] = second compound 0.316 µM, first compound 3.16 µM
# [17] = second compound 0.316 µM, first compound 10 µM
# [18] = second compound 1 µM, first compound 0.0316 µM
# [19] = second compound 1 µM, first compound 0.1 µM
# [20] = second compound 1 µM, first compound 0.316 µM
# [21] = second compound 1 µM, first compound 1 µM
# [22] = second compound 1 µM, first compound 3.16 µM
# [23] = second compound 1 µM, first compound 10 µM
# [24] = second compound 3.16 µM, first compound 0.0316 µM
# [25] = second compound 3.16 µM, first compound 0.1 µM
# [26] = second compound 3.16 µM, first compound 0.316 µM
# [27] = second compound 3.16 µM, first compound 1 µM
# [28] = second compound 3.16 µM, first compound 3.16 µM
# [29] = second compound 3.16 µM, first compound 10 µM
# [30] = second compound 10 µM, first compound 0.0316 µM
# [31] = second compound 10 µM, first compound 0.1 µM
# [32] = second compound 10 µM, first compound 0.316 µM
# [33] = second compound 10 µM, first compound 1 µM
# [34] = second compound 10 µM, first compound 3.16 µM
# [35] = second compound 10 µM, first compound 10 µM
# 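Also: spheroids exposed to agents for 7 days before readout.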
Structure (SMILES),IC50 [1] [µM],IC50 [2] [µM],IC50 [3] [µM],IC50 [4] [µM],IC50 [5] [µM],"viability, T/C [6] [%]","viability, T/C [7] [%]","viability, T/C [8] [%]","viability, T/C [9] [%]","viability, T/C [12] [%]","viability, T/C [13] [%]","viability, T/C [14] [%]","viability, T/C [15] [%]","viability, T/C [18] [%]","viability, T/C [19] [%]","viability, T/C [20] [%]","viability, T/C [21] [%]","viability, T/C [24] [%]","viability, T/C [25] [%]","viability, T/C [26] [%]",other results
CC(C)NCC(C(=O)N1CCN(c2ncnc3c2C(C)CC3O)CC1)c1ccc(Cl)cc1 (configuration not stated) + COc1cc2nc(C)nc(NC(C)c3cc(N)cc(C(F)(F)F)c3)c2cc1OC1CCOC1,> 10,> 10,> 10,8.31,< 0.0316,86.3,77.1,75.7,71.6,88.8,87.2,70.5,70.3,86.4,77.5,69.1,70.8,76.7,72.3,66,"viability, T/C [10]: 74.6%; viability, T/C [11]: 56.8%; viability, T/C [16]: 75.7%; viability, T/C [17]: 57.7%; viability, T/C [22]: 71.6%; viability, T/C [23]: 56.4%; viability, T/C [27]: 71.3%; viability, T/C [28]: 76.9%; viability, T/C [29]: 45.8%; viability, T/C [30]: 39.2%; viability, T/C [31]: 37.5%; viability, T/C [32]: 26.9%; viability, T/C [33]: 20.8%; viability, T/C [34]: 11.5%; viability, T/C [35]: 6.18%"
CC(C)NCC(C(=O)N1CCN(c2ncnc3c2C(C)CC3O)CC1)c1ccc(Cl)cc1 (configuration not stated) + CNCc1ccccc1-c1csc(C(C)Nc2nc(C)nc3cc(OC)c(OC)cc23)c1,> 10,> 10,4.19,< 0.0316,< 0.0316,87.4,82.9,76,70.8,87.4,77.3,67.7,72.7,94,76.9,64.9,66.3,1.32,0.9,1.56,"viability, T/C [10]: 76.8%; viability, T/C [11]: 57.1%; viability, T/C [16]: 78.2%; viability, T/C [17]: 53.1%; viability, T/C [22]: 68.8%; viability, T/C [23]: 26.3%; viability, T/C [27]: 0.7%; viability, T/C [28]: 0.43%; viability, T/C [29]: 0.59%; viability, T/C [30]: 0.17%; viability, T/C [31]: 0.16%; viability, T/C [32]: 0.17%; viability, T/C [33]: 0.31%; viability, T/C [34]: 0.16%; viability, T/C [35]: 0.23%"
COc1cc2nccc(Oc3ccc(NC(=O)C4(C(=O)Nc5ccc(F)cc5)CC4)cc3)c2cc1OC + CC1OCC2(CCN(c3cnc(Sc4ccnc(N)c4Cl)c(N)n3)CC2)C1N,> 10,> 10,3.12,2.98,2.21,87.1,87.9,87.9,82.7,84.7,79.9,83.7,84.7,74.3,71.2,76.2,72.5,75.5,82.8,72.1,"viability, T/C [10]: 59.1%; viability, T/C [11]: 63%; viability, T/C [16]: 60.5%; viability, T/C [17]: 51.1%; viability, T/C [22]: 49.1%; viability, T/C [23]: 50.3%; viability, T/C [27]: 67.7%; viability, T/C [28]: 45.8%; viability, T/C [29]: 52.3%; viability, T/C [30]: 71.4%; viability, T/C [31]: 62.9%; viability, T/C [32]: 67.4%; viability, T/C [33]: 63.3%; viability, T/C [34]: 44%; viability, T/C [35]: 39.4%"
CC(C)NCC(C(=O)N1CCN(c2ncnc3c2C(C)CC3O)CC1)c1ccc(Cl)cc1 (configuration not stated),,,,,,,,,,,,,,,,,,,,,"viability, T/C (compound 0.0316 µM): 95.8% [middle of 5 runs]; viability, T/C (compound 0.1 µM): 83.2% [middle of 5 runs]; viability, T/C (compound 0.316 µM): 75.3% [middle of 5 runs]; viability, T/C (compound 1 µM): 75.9% [middle of 5 runs]; viability, T/C (compound 3.16 µM): 84.6% [middle of 5 runs]; viability, T/C (compound 10 µM): 56.9% [middle of 5 runs]; IC50 (curve of compound): > 10 µM"
CCN1CCN(Cc2ccc(Nc3ncc(F)c(-c4cc(F)c5nc(C)n(C(C)C)c5c4)n3)nc2)CC1 + CC1OCC2(CCN(c3cnc(Sc4ccnc(N)c4Cl)c(N)n3)CC2)C1N,> 1,> 1,> 1,> 1,> 1,78,74.3,79.8,76.9,71.6,71.2,81.2,81,71.4,63.5,75.5,73.7,68.7,61.5,68.1,"viability, T/C (second compound 0.1 µM, first compound 0.00316 µM): 88.2%; viability, T/C (second compound 0.1 µM, first compound 0.01 µM): 94.5%; viability, T/C (second compound 0.316 µM, first compound 0.00316 µM): 80%; viability, T/C (second compound 0.316 µM, first compound 0.01 µM): 76.3%; viability, T/C (second compound 1 µM, first compound 0.00316 µM): 82.7%; viability, T/C (second compound 1 µM, first compound 0.01 µM): 77.5%; viability, T/C (second compound 3.16 µM, first compound 0.00316 µM): 73.8%; viability, T/C (second compound 3.16 µM, first compound 0.01 µM): 73%; viability, T/C [27]: 71%; viability, T/C (second compound 10 µM, first compound 0.00316 µM): 70.9%; viability, T/C (second compound 10 µM, first compound 0.01 µM): 68.1%; viability, T/C [30]: 63.2%; viability, T/C [31]: 59.6%; viability, T/C [32]: 66%; viability, T/C [33]: 63.2%"
